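Values below derive from 48-hour exposures of cells grown in 96-well plates, with endpoints linearly interpolated between the two concentrations bracketing the appropriate inhibition level. GI50 marks 50% less growth. At the TGI there is no net growth.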
Legend:
Assay in all cases: NCI anticancer screen, dose series, 48 h; in the data active = GI50 below about 0.43 µM; inactive = the rest
[1] = tested on: 786-0 renal
[2] = tested on: A498 renal
[3] = tested on: A549 NSCLC
[4] = tested on: ACHN renal
[5] = tested on: BT-549 breast
[6] = tested on: CAKI-1 renal
[7] = tested on: CCRF-CEM leukemia
[8] = tested on: COLO 205 colon
[9] = tested on: DU-145 prostate
[10] = tested on: EKVX NSCLC
[11] = tested on: HCC-2998 colon
[12] = tested on: HCT-116 colon
[13] = tested on: HCT-15 colon
[14] = tested on: HL-60(TB) leukemia
[15] = tested on: HOP-62 NSCLC
[16] = tested on: HOP-92 NSCLC
[17] = tested on: HS 578T breast
[18] = tested on: HT29 colon
[19] = tested on: IGROV1 ovarian
[20] = tested on: K-562 leukemia
[21] = tested on: KM12 colon
[22] = tested on: LOX IMVI melanoma
[23] = tested on: M14 melanoma
[24] = tested on: MALME-3M melanoma
[25] = tested on: MCF7 breast
[26] = tested on: MDA-MB-231 breast
[27] = tested on: MDA-MB-435
[28] = tested on: MOLT-4 leukemia
[29] = tested on: NCI-H226 lung
[30] = tested on: NCI-H23 lung
[31] = tested on: NCI-H460 lung
[32] = tested on: NCI-H522 lung
[33] = tested on: NCI/ADR-RES ovarian
[34] = tested on: OVCAR-3 ovarian
[35] = tested on: OVCAR-4 ovarian
[36] = tested on: OVCAR-5 ovarian
[37] = tested on: OVCAR-8 ovarian
[38] = tested on: PC-3 prostate
[39] = tested on: RPMI-8226 leukemia
[40] = tested on: RXF 393 renal
[41] = tested on: SF-268 CNS
[42] = tested on: SF-295 CNS
[43] = tested on: SF-539 CNS
[44] = tested on: SK-MEL-2 melanoma
[45] = tested on: SK-MEL-28 melanoma
[46] = tested on: SK-MEL-5 melanoma
[47] = tested on: SK-OV-3 ovarian
[48] = tested on: SN12C renal
[49] = tested on: SNB-19 CNS
[50] = tested on: SNB-75 CNS
[51] = tested on: SR leukemia
[52] = tested on: SW-620 colon
[53] = tested on: T-47D breast
[54] = tested on: TK-10 renal
[55] = tested on: U251 CNS
[56] = tested on: UACC-257 melanoma
[57] = tested on: UACC-62 melanoma
[58] = tested on: UO-31 renal

C[C@H](NC(=O)[C@@H]1CSSC[C@@H](NC(=O)c2nc3ccccc3cc2O)C(=O)NCC(=O)N1C)c1ccccc1
14.1 µM: TGI [48]
16.1 µM: TGI [5]
1520 nM: TGI [22]
18.3 µM: TGI [35]
17.1 µM: TGI [11]
active: GI50 [23] 318 nM | GI50 [51] 0.17 µM
6.26 µM: TGI [52]
3.13 µM: TGI [20]
9.76 µM: TGI [23]
3.27 µM: TGI [28]
9.13 µM: TGI [43]
2470 nM: TGI [25]
12.4 µM: TGI [19]
33.5 µM: TGI [2]
12.1 µM: TGI [36]
15.8 µM: TGI [3]
10.5 µM: TGI [7]
3.35 µM: TGI [18]
11.8 µM: TGI [10]
50 µM: TGI [33]
13.3 µM: TGI [58]
7.98 µM: TGI [31]
19.4 µM: TGI [49]
10.2 µM: TGI [32]
17.4 µM: TGI [29]
4.78 µM: TGI [14]
6.59 µM: TGI [27]
877 nM: TGI [51]
17.7 µM: TGI [37]
15.5 µM: TGI [54]
13.2 µM: TGI [57]
9.62 µM: TGI [13]
9.83 µM: TGI [45]
21.5 µM: TGI [39]
3.82 µM: TGI [46]
18.6 µM: TGI [16]
12.7 µM: TGI [9]
inactive: GI50 [1] 2450 nM | GI50 [2] 15 µM | GI50 [3] 7.06 µM | GI50 [4] 4.63 µM | GI50 [5] 6.88 µM | GI50 [6] 7.24 µM | GI50 [7] 1.89 µM | GI50 [8] 963 nM | GI50 [9] 5.78 µM | GI50 [10] 3.48 µM | GI50 [11] 7.48 µM | GI50 [12] 1630 nM | GI50 [13] 2550 nM | GI50 [14] 1.2 µM | GI50 [15] 11.6 µM | GI50 [16] 9.69 µM | GI50 [17] 11.2 µM | GI50 [18] 1.13 µM | GI50 [19] 2590 nM | GI50 [20] 0.663 µM | GI50 [21] 0.629 µM | GI50 [22] 649 nM | GI50 [24] 6.08 µM | GI50 [25] 835 nM | GI50 [26] 1940 nM | GI50 [27] 737 nM | GI50 [28] 0.894 µM | GI50 [29] 8.87 µM | GI50 [30] 5.14 µM | GI50 [31] 1250 nM | GI50 [32] 3.13 µM | GI50 [33] 11 µM | GI50 [34] 0.584 µM | GI50 [35] 7.95 µM | GI50 [36] 4.35 µM | GI50 [37] 5.16 µM | GI50 [38] 5.98 µM | GI50 [39] 5.67 µM | GI50 [40] 1310 nM | GI50 [41] 430 nM | GI50 [42] 7.44 µM | GI50 [43] 1630 nM | GI50 [44] 2.55 µM | GI50 [45] 906 nM | GI50 [46] 582 nM | GI50 [47] 5.59 µM | GI50 [48] 5.62 µM | GI50 [49] 7.24 µM | GI50 [50] 7.62 µM | GI50 [52] 1.85 µM | GI50 [53] 1.11 µM | GI50 [54] 8.06 µM | GI50 [55] 2380 nM | GI50 [56] 7.63 µM | GI50 [57] 5.6 µM | GI50 [58] 5.76 µM
3.79 µM: TGI [53]
7.46 µM: TGI [55]
16.3 µM: TGI [42]
14 µM: TGI [24]
43.1 µM: TGI [50]
20.7 µM: TGI [15]
18.5 µM: TGI [6]
9.78 µM: TGI [1]
24.6 µM: TGI [56]
11 µM: TGI [41]
34.1 µM: TGI [17]
5.15 µM: TGI [12]
7.84 µM: TGI [26]
12.8 µM: TGI [4]
3.06 µM: TGI [40]
21.2 µM: TGI [47]
13.5 µM: TGI [38]
8.56 µM: TGI [21]
2340 nM: TGI [8]
1350 nM: TGI [34]
12.6 µM: TGI [30]
10.1 µM: TGI [44]

C=C1SC(=Nc2c(C)cc(C)cc2C)N(C(=O)c2sc3ccccc3c2Cl)C12CCCCC2
> 100000 nM: TGI [8] | TGI [22] | TGI [25] | TGI [34] | TGI [51]
inactive: GI50 [1] > 100000 nM | GI50 [2] > 100 µM | GI50 [3] > 100 µM | GI50 [4] > 100 µM | GI50 [5] > 100 µM | GI50 [6] 10.7 µM | GI50 [7] 62.4 µM | GI50 [8] > 100000 nM | GI50 [9] > 100 µM | GI50 [10] 38.6 µM | GI50 [11] 44.7 µM | GI50 [12] > 100000 nM | GI50 [13] > 100000 nM | GI50 [14] 16.5 µM | GI50 [15] > 100 µM | GI50 [16] 39.1 µM | GI50 [17] > 100 µM | GI50 [18] 58.5 µM | GI50 [19] > 100000 nM | GI50 [20] 54.5 µM | GI50 [21] 54.6 µM | GI50 [22] > 100000 nM | GI50 [23] > 100000 nM | GI50 [24] > 100 µM | GI50 [25] > 100000 nM | GI50 [26] > 100000 nM | GI50 [27] > 100000 nM | GI50 [28] 26.3 µM | GI50 [29] > 100 µM | GI50 [30] 37.4 µM | GI50 [31] > 100000 nM | GI50 [32] 28.6 µM | GI50 [33] > 100 µM | GI50 [34] 88.7 µM | GI50 [35] > 100 µM | GI50 [36] > 100 µM | GI50 [37] > 100 µM | GI50 [38] 22.3 µM | GI50 [39] 21.6 µM | GI50 [40] > 100000 nM | GI50 [41] > 100000 nM | GI50 [42] 42.3 µM | GI50 [43] > 100000 nM | GI50 [44] 61.6 µM | GI50 [45] > 100000 nM | GI50 [46] > 100000 nM | GI50 [47] > 100 µM | GI50 [48] > 100 µM | GI50 [49] > 100 µM | GI50 [50] > 100 µM | GI50 [51] 13 µM | GI50 [52] 31.1 µM | GI50 [53] 9.69 µM | GI50 [54] > 100 µM | GI50 [55] > 100000 nM | GI50 [56] > 100 µM | GI50 [57] 78.5 µM | GI50 [58] 63.8 µM
> 100 µM: TGI [1] | TGI [2] | TGI [3] | TGI [4] | TGI [5] | TGI [6] | TGI [7] | TGI [9] | TGI [10] | TGI [11] | TGI [12] | TGI [13] | TGI [14] | TGI [15] | TGI [16] | TGI [17] | TGI [18] | TGI [19] | TGI [20] | TGI [21] | TGI [23] | TGI [24] | TGI [26] | TGI [27] | TGI [28] | TGI [29] | TGI [30] | TGI [31] | TGI [32] | TGI [33] | TGI [35] | TGI [36] | TGI [37] | TGI [38] | TGI [39] | TGI [40] | TGI [41] | TGI [42] | TGI [43] | TGI [44] | TGI [45] | TGI [46] | TGI [47] | TGI [48] | TGI [49] | TGI [50] | TGI [52] | TGI [53] | TGI [54] | TGI [55] | TGI [56] | TGI [57] | TGI [58]

Source: PubChem BioAssay (NCI)
